Series [1] in a line: Hill coefficient was determined. The format is ADME.
The target of series [2] is Melanocortin receptor 4 (Homo sapiens, UniProt P32245). The series can be described thus: Binding affinity towards human melanocortin 4 receptor was determined using [125I]-NDP-alpha-MSH as radioligand transfected in HEK293 human embryonic kidney cells. In kind it is cell-based. The note with it: read-out: EC50.

A word on the Hill coefficient: it is a measure of the steepness of the concentration-response curve.

Sequence of Melanocortin receptor 4 (P32245 whole entry): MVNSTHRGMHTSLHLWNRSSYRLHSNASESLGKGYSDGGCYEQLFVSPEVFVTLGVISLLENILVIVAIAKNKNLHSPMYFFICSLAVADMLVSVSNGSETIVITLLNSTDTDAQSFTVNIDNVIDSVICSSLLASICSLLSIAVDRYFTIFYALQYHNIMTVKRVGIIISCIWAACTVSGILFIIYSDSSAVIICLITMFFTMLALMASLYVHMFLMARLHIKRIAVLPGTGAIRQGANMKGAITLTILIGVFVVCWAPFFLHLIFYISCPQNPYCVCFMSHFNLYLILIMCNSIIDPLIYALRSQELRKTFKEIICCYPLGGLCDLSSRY

As for `CC(=O)N[C@@H](Cc1c[nH]cn1)C(=O)N[C@H](Cc1ccccc1)C(=O)N[C@@H](CCCN=C(N)N)C(=O)N[C@@H](Cc1c[nH]c2ccccc12)C(=O)Nc1ccc(C(=O)Nc2ccc(C(=O)N[C@@H](Cc3c[nH]cn3)C(=O)N[C@H](Cc3ccccc3)C(=O)N[C@@H](CCCN=C(N)N)C(=O)N[C@@H](Cc3c[nH]c4ccccc34)C(N)=O)cc2)cc1`, the Hill coefficient in series [1] turned out to be 1.12. In series [2], the binding affinity (radioligand displacement) came to 123 nM.
Regarding `CCCC[C@H](NC(C)=O)C(=O)N[C@@H](CCC(=O)O)C(=O)N[C@@H](Cc1cnc[nH]1)C(=O)N[C@H](Cc1ccccc1)C(=O)N[C@@H](CCCNC(=N)N)C(=O)N[C@@H](Cc1c[nH]c2ccccc12)C(=O)NCCCOCCOCCOCCCNC(=O)CCC(=O)NCCCOCCOCCOCCCNC(=O)CCC(=O)N[C@@H](CCCC)C(=O)N[C@@H](CCC(=O)O)C(=O)N[C@@H](Cc1cnc[nH]1)C(=O)N[C@H](Cc1ccccc1)C(=O)N[C@@H](CCCNC(=N)N)C(=O)N[C@@H](Cc1c[nH]c2ccccc12)C(N)=O`, the Hill coefficient in series [1] stood at 0.97. Besides, in series [2] (hek293), the binding affinity (radioligand displacement) turned out to be 122 nM.
With `CCCC[C@H](NC(C)=O)C(=O)N[C@@H](CCC(=O)O)C(=O)N[C@@H](Cc1cnc[nH]1)C(=O)N[C@H](Cc1ccccc1)C(=O)N[C@@H](CCCNC(=N)N)C(=O)N[C@@H](Cc1c[nH]c2ccccc12)C(=O)NCCC(=O)NCC(=O)NCCC(=O)N[C@@H](CCCC)C(=O)N[C@@H](CCC(=O)O)C(=O)N[C@@H](Cc1cnc[nH]1)C(=O)N[C@H](Cc1ccccc1)C(=O)N[C@@H](CCCNC(=N)N)C(=O)N[C@@H](Cc1c[nH]c2ccccc12)C(N)=O`, the Hill coefficient in series [1] came to 0.91. In addition, in series [2], the binding affinity (radioligand displacement) came to 7 nM.
`CC(=O)N[C@@H](Cc1c[nH]cn1)C(=O)N[C@H](Cc1ccccc1)C(=O)N[C@@H](CCCN=C(N)N)C(=O)N[C@@H](Cc1c[nH]c2ccccc12)C(=O)NCCCC[C@H](NC(=O)CCNC(=O)CNC(=O)CCNC(=O)[C@H](Cc1c[nH]c2ccccc12)NC(=O)[C@H](CCCN=C(N)N)NC(=O)[C@@H](Cc1ccccc1)NC(=O)[C@H](Cc1c[nH]cn1)NC(C)=O)C(=O)NCCC(=O)NCC(=O)NCCC(=O)N[C@@H](Cc1c[nH]cn1)C(=O)N[C@H](Cc1ccccc1)C(=O)N[C@@H](CCCN=C(N)N)C(=O)N[C@@H](Cc1c[nH]c2ccccc12)C(N)=O` displayed a Hill coefficient in series [1] of 1.56. Also, the binding affinity (radioligand displacement) in series [2] (hek293) turned out to be 24 nM.
Turning to `CCCC[C@H](NC(C)=O)C(=O)N[C@@H](CCC(=O)O)C(=O)N[C@@H](Cc1c[nH]cn1)C(=O)N[C@H](Cc1ccccc1)C(=O)N[C@@H](CCCN=C(N)N)C(=O)N[C@@H](Cc1c[nH]c2ccccc12)C(=O)NCCOCCOCCNC(=O)CCC(=O)N[C@@H](CCCC)C(=O)N[C@@H](CCC(=O)O)C(=O)N[C@@H](Cc1c[nH]cn1)C(=O)N[C@H](Cc1ccccc1)C(=O)N[C@@H](CCCN=C(N)N)C(=O)N[C@@H](Cc1c[nH]c2ccccc12)C(N)=O`, the Hill coefficient in series [1] was 1.23. In series [2], the binding affinity (radioligand displacement) was found to be 9 nM.
For the molecule `CC(=O)N[C@@H](Cc1c[nH]cn1)C(=O)N[C@H](Cc1ccccc1)C(=O)N[C@@H](CCCN=C(N)N)C(=O)N[C@@H](Cc1c[nH]c2ccccc12)C(=O)NCCCC[C@H](NC(=O)CCNC(=O)[C@H](Cc1c[nH]c2ccccc12)NC(=O)[C@H](CCCN=C(N)N)NC(=O)[C@@H](Cc1ccccc1)NC(=O)[C@H](Cc1c[nH]cn1)NC(C)=O)C(=O)NCCC(=O)N[C@@H](Cc1c[nH]cn1)C(=O)N[C@H](Cc1ccccc1)C(=O)N[C@@H](CCCN=C(N)N)C(=O)N[C@@H](Cc1c[nH]c2ccccc12)C(N)=O`, in series [1], the Hill coefficient came to 1.13. Moreover, the binding affinity (radioligand displacement) in series [2] (hek293) is 15 nM.
The molecule `CC(=O)N[C@@H](Cc1c[nH]cn1)C(=O)N[C@H](Cc1ccccc1)C(=O)N[C@@H](CCCN=C(N)N)C(=O)N[C@@H](Cc1c[nH]c2ccccc12)C(=O)NCCOCCOCCNC(=O)CCC(=O)N[C@@H](Cc1c[nH]cn1)C(=O)N[C@H](Cc1ccccc1)C(=O)N[C@@H](CCCN=C(N)N)C(=O)N[C@@H](Cc1c[nH]c2ccccc12)C(N)=O` had a Hill coefficient in series [1] of 1.1. Also, in series [2], the binding affinity (radioligand displacement) was determined as 234 nM.
In the same order, the values of `CC(=O)N[C@@H](Cc1c[nH]cn1)C(=O)N[C@H](Cc1ccccc1)C(=O)N[C@@H](CCCN=C(N)N)C(=O)N[C@@H](Cc1c[nH]c2ccccc12)C(=O)N1CCC[C@H]1C(=O)NCC(=O)N1CCC[C@H]1C(=O)N[C@@H](Cc1c[nH]cn1)C(=O)N[C@H](Cc1ccccc1)C(=O)N[C@@H](CCCN=C(N)N)C(=O)N[C@@H](Cc1c[nH]c2ccccc12)C(N)=O` are 0.84 and 14 nM.
Turning to `CC(=O)N[C@@H](Cc1cnc[nH]1)C(=O)N[C@H](Cc1ccccc1)C(=O)N[C@@H](CCCNC(=N)N)C(=O)N[C@@H](Cc1c[nH]c2ccccc12)C(=O)Nc1ccc(C(=O)Nc2ccc(C(=O)Nc3ccc(C(=O)N[C@@H](Cc4cnc[nH]4)C(=O)N[C@H](Cc4ccccc4)C(=O)N[C@@H](CCCNC(=N)N)C(=O)N[C@@H](Cc4c[nH]c5ccccc45)C(N)=O)cc3)cc2)cc1`, the Hill coefficient in series [1] is recorded as 1.05. The binding affinity (radioligand displacement) in series [2] amounted to 164 nM.
`CC(=O)N[C@@H](Cc1c[nH]cn1)C(=O)N[C@H](Cc1ccccc1)C(=O)N[C@@H](CCCN=C(N)N)C(=O)N[C@@H](Cc1c[nH]c2ccccc12)C(=O)NCCC(=O)NCC(=O)NCCC(=O)NCC(=O)NCCC(=O)N[C@@H](Cc1c[nH]cn1)C(=O)N[C@H](Cc1ccccc1)C(=O)N[C@@H](CCCN=C(N)N)C(=O)N[C@@H](Cc1c[nH]c2ccccc12)C(N)=O` came in with a Hill coefficient in series [1] of 1.09. The binding affinity (radioligand displacement) in series [2] amounted to 231 nM.
Regarding `CCCC[C@H](NC(C)=O)C(=O)N[C@@H](CCC(=O)O)C(=O)N[C@@H](Cc1c[nH]cn1)C(=O)N[C@H](Cc1ccccc1)C(=O)N[C@@H](CCCN=C(N)N)C(=O)N[C@@H](Cc1c[nH]c2ccccc12)C(=O)NCCCOCCOCCOCCCNC(=O)CCC(=O)N[C@@H](CCCC)C(=O)N[C@@H](CCC(=O)O)C(=O)N[C@@H](Cc1c[nH]cn1)C(=O)N[C@H](Cc1ccccc1)C(=O)N[C@@H](CCCN=C(N)N)C(=O)N[C@@H](Cc1c[nH]c2ccccc12)C(N)=O`, the Hill coefficient in series [1] came out at 1.59. For the same molecule, the binding affinity (radioligand displacement) in series [2] (hek293) turned out to be 33 nM.
With `CC(=O)N[C@@H](Cc1c[nH]cn1)C(=O)N[C@H](Cc1ccccc1)C(=O)N[C@@H](CCCN=C(N)N)C(=O)N[C@@H](Cc1c[nH]c2ccccc12)C(=O)Nc1ccc(C(=O)N[C@@H](Cc2c[nH]cn2)C(=O)N[C@H](Cc2ccccc2)C(=O)N[C@@H](CCCN=C(N)N)C(=O)N[C@@H](Cc2c[nH]c3ccccc23)C(N)=O)cc1`, in series [1], the Hill coefficient is on record as 1.05. Besides, in series [2], the binding affinity (radioligand displacement) was 38 nM.
Molecule `CC(=O)N[C@@H](Cc1c[nH]cn1)C(=O)N[C@H](Cc1ccccc1)C(=O)N[C@@H](CCCN=C(N)N)C(=O)N[C@@H](Cc1c[nH]c2ccccc12)C(=O)N[C@@H](Cc1c[nH]cn1)C(=O)N[C@H](Cc1ccccc1)C(=O)N[C@@H](CCCN=C(N)N)C(=O)N[C@@H](Cc1c[nH]c2ccccc12)C(N)=O` yielded a Hill coefficient in series [1] of 0.9. Besides, in series [2], the binding affinity (radioligand displacement) was 264 nM.
As to `CC(=O)N[C@@H](Cc1c[nH]cn1)C(=O)N[C@H](Cc1ccccc1)C(=O)N[C@@H](CCCN=C(N)N)C(=O)N[C@@H](Cc1c[nH]c2ccccc12)C(=O)NCCCOCCOCCOCCCNC(=O)CCC(=O)N[C@@H](Cc1c[nH]cn1)C(=O)N[C@H](Cc1ccccc1)C(=O)N[C@@H](CCCN=C(N)N)C(=O)N[C@@H](Cc1c[nH]c2ccccc12)C(N)=O`, in series [1], the Hill coefficient turned out to be 1.83. The binding affinity (radioligand displacement) in series [2] (hek293) amounted to 662 nM.
The molecule `CC(=O)N[C@@H](Cc1c[nH]cn1)C(=O)N[C@H](Cc1ccccc1)C(=O)N[C@@H](CCCN=C(N)N)C(=O)N[C@@H](Cc1c[nH]c2ccccc12)C(=O)NCCC(=O)NCC(=O)NCCC(=O)NCC(=O)NCCC(=O)NCC(=O)NCCC(=O)N[C@@H](Cc1c[nH]cn1)C(=O)N[C@H](Cc1ccccc1)C(=O)N[C@@H](CCCN=C(N)N)C(=O)N[C@@H](Cc1c[nH]c2ccccc12)C(N)=O` showed a Hill coefficient in series [1] of 0.88. Besides, the binding affinity (radioligand displacement) in series [2] was 571 nM.
In the same order, the values of `CC(=O)N[C@@H](Cc1cnc[nH]1)C(=O)N[C@H](Cc1ccccc1)C(=O)N[C@@H](CCCNC(=N)N)C(=O)N[C@@H](Cc1c[nH]c2ccccc12)C(=O)NCCC(=O)NCC(=O)NCCC(=O)N[C@@H](Cc1cnc[nH]1)C(=O)N[C@H](Cc1ccccc1)C(=O)N[C@@H](CCCNC(=N)N)C(=O)N[C@@H](Cc1c[nH]c2ccccc12)C(N)=O` are 0.99 and 143 nM.
In the same order, the values of `CC(=O)N[C@@H](Cc1c[nH]cn1)C(=O)N[C@H](Cc1ccccc1)C(=O)N[C@@H](CCCN=C(N)N)C(=O)N[C@@H](Cc1c[nH]c2ccccc12)C(=O)NCCC(=O)N[C@@H](Cc1c[nH]cn1)C(=O)N[C@H](Cc1ccccc1)C(=O)N[C@@H](CCCN=C(N)N)C(=O)N[C@@H](Cc1c[nH]c2ccccc12)C(N)=O` are 1.39 and 119 nM.

The record behind these values is ChEMBL document CHEMBL1146694, “Novel targeting strategy based on multimeric ligands for drug delivery and molecular imaging: homooligomers of alpha-MSH” (Bioorg Med Chem Lett, 2004).
